In ChEMBL document CHEMBL5257089, “Gamabufotalin Induces Apoptosis and Cytoprotective Autophagy through the mTOR Signaling Pathway in Hepatocellular Carcinoma” (J Nat Prod, 2023):
Activity calls are given as the source filed them. No cut-off for these calls is given here.

Columns and labels:
Hep 3B2 [1] = assay: Induction of autophagic flux in human Hep3B cells assessed as rescue of p62 at 10 uM incubated for 48 hrs in presence of gamabufotalin by Western blot analysis; format: functional, cell-based
Huh-7 [2] = assay: Induction of autophagic flux in human Huh-7 cells assessed as rescue of LC3-II accumulation at 10 uM incubated for 48 hrs in presence of gamabufotalin by Western blot analysis; format: functional, cell-based
Huh-7 [3] = assay: Induction of autophagy in human Huh-7 cells assessed as rescue of mTOR phosphorylation level at upto 10 nM incubated for 48 hrs in presence of gamabufotalin by immunoblot method; format: functional, cell-based
Hep 3B2 [4] = assay: Induction of autophagy in human Hep3B cells assessed as rescue of ULK1 phosphorylation level at upto 10 nM incubated for 48 hrs in presence of gamabufotalin by immunoblot method; format: functional, cell-based
Huh-7 [5] = assay: Induction of apoptosis in human Huh-7 cells assessed as increase in cleaved PARP level at 10 nM incubated for 48 hrs in presence of gamabufotalin by immunoblot analysis; format: functional, cell-based
Huh-7 [6] = assay: Induction of autophagic flux in human Huh-7 cells assessed as decrease in p62 expression at upto 25 nM incubated for 48 hrs by Western blot analysis; format: functional, cell-based
Hep 3B2 [7] = assay: Induction of apoptosis in human Hep3B cells assessed as increase in cleaved caspase-3 level at 25 nM incubated for 48 hrs in presence of chloroquine by immunoblot analysis; format: functional, cell-based
Hep 3B2 [8] = assay: Induction of apoptosis in human Hep3B cells assessed as necrotic cells at 15 nM incubated for 48 hrs by Annexin V-FITC/PI staining based flow cytometry method (reference value: 0.2%); format: functional
[9] = Toxicity in mouse assessed as effect on body weight at 5 mg/kg,ip administered every second day for 3 weeks; format: organism-based; settings: in vivo, 504 h
Hep 3B2 [10] = assay: Induction of autophagic flux in human Hep3B cells assessed as increase in high electron density vesicles at 25 nM incubated for 48 hrs by transmission electron microscopic analysis; format: functional, cell-based
Hep 3B2 [11] = assay: Induction of apoptosis in human Hep3B cells assessed as viable cells at 20 nM incubated for 48 hrs by Annexin V-FITC/PI staining based flow cytometry method (reference value: 93.3%); format: functional; settings: read-out: Activity
Huh-7 [12] = assay: Induction of apoptosis in human Huh-7 cells assessed as fragmented nuclei at upto […] incubated for 48 hrs by Hoechst33258 staining based fluorescence microscopy; format: functional, cell-based
Hep 3B2 [13] = assay: Induction of autophagy in human Hep3B cells assessed as upregulation of p62 at 25 uM incubated for 48 hrs in presence of 4,6-dimorpholino-N-(4-nitrophenyl)-1,3,5-triazin-2-amine by immunoblot analysis; format: functional, cell-based
Hep 3B2 [14] = assay: Induction of apoptosis in human Hep3B cells assessed as upregulation of bax level […] incubated for 48 hrs in presence of 4,6-dimorpholino-N-(4-nitrophenyl)-1,3,5-triazin-2-amine by immunoblot analysis; format: functional, cell-based
Hep 3B2 [15] = assay: Induction of apoptosis in human Hep3B cells assessed as early apoptotic cells at 25 nM measured after 48 hrs by annexin V-FITC/Propidium iodide staining based flow cytometric analysis (reference value: 1.6%); format: functional
Hep 3B2 [16] = assay: Induction of apoptosis in human Hep3B cells assessed as upregulation of cleaved PARP level […] incubated for 48 hrs in presence of 4,6-dimorpholino-N-(4-nitrophenyl)-1,3,5-triazin-2-amine by immunoblot analysis; format: functional, cell-based
Hep 3B2 [17] = assay: Induction of autophagy in human Hep3B cells assessed as rescue of ULK1 phosphorylation level at upto 25 nM incubated for 48 hrs in presence of chloroquine by immunoblot method; format: functional, cell-based
Hep 3B2 [18] = assay: Induction of autophagy in human Hep3B cells harbouring mCherry-egfp-LC3 assessed as reduction in red puncta ratio at 25 nM incubated for 15 mins in presence of 4,6-dimorpholino-N-(4-nitrophenyl)-1,3,5-triazin-2-amine by laser scanning confocal microscopic analysis; format: functional, cell-based
Hep 3B2 [19] = assay: Induction of autophagic flux in human Hep3B cells assessed as increase in intracellular vesicles at 25 nM incubated for 48 hrs by transmission electron microscopic analysis; format: functional, cell-based
Huh-7 [20] = assay: Induction of autophagic flux in human Huh-7 cells assessed as rescue of LC3-II accumulation at 25 uM incubated for 48 hrs in presence of chloroquine by Western blot analysis; format: functional, cell-based
Hep 3B2 [21] = assay: Induction of apoptosis in human Hep3B cells assessed as late apoptotic cells at 25 nM incubated for 48 hrs by Annexin V-FITC/PI staining based flow cytometry method (reference value: 2.2%); format: functional
Hep 3B2 [22] = assay: Induction of apoptosis in human Hep3B cells assessed as viable cells at 15 nM incubated for 48 hrs by Annexin V-FITC/PI staining based flow cytometry method (reference value: 93.3%); format: functional; settings: read-out: Activity
Huh-7 [23] = assay: Induction of apoptosis in human Huh-7 cells assessed as increase in caspase-3 level at 25 nM incubated for 48 hrs in presence of chloroquine by immunoblot analysis; format: functional, cell-based
Huh-7 [24] = assay: Induction of apoptosis in human Huh-7 cells assessed as early apoptotic cells at 25 nM incubated for 48 hrs by Annexin V-FITC/PI staining based flow cytometry method (reference value: 4.3%); format: functional
Huh-7 [25] = assay: Induction of apoptosis in human Huh-7 cells assessed as necrotic cells at 25 nM incubated for 48 hrs in presence of chloroquine by Annexin V-FITC/PI staining based flow cytometry method (reference value: 1.0%); format: functional
Huh-7 [26] = assay: Induction of autophagy in human Huh-7 cells harbouring mCherry-egfp-LC3 assessed as reduction in red puncta ratio at 25 nM incubated for 15 mins in presence of 4,6-dimorpholino-N-(4-nitrophenyl)-1,3,5-triazin-2-amine by laser scanning confocal microscopic analysis; format: functional, cell-based
Huh-7 [27] = assay: Induction of apoptosis in human Huh-7 cells assessed as […] in Bax level at upto 25 nM incubated for 48 hrs by Western blot analysis; format: functional, cell-based
Hep 3B2 [28] = assay: Induction of apoptosis in human Hep3B cells assessed as reduction in bcl-2 level […] incubated for 48 hrs in presence of 4,6-dimorpholino-N-(4-nitrophenyl)-1,3,5-triazin-2-amine by immunoblot analysis; format: functional, cell-based
Hep 3B2 [29] = assay: Induction of apoptosis in human Hep3B cells assessed as late apoptotic cells at 25 nM measured after 48 hrs by annexin V-FITC/Propidium iodide staining based flow cytometric analysis (reference value: 2.4%); format: functional
Huh-7 [30] = assay: Induction of apoptosis in human Huh-7 cells assessed as necrotic cells at 25 nM incubated for 48 hrs in presence of 4,6-dimorpholino-N-(4-nitrophenyl)-1,3,5-triazin-2-amine by Annexin V-FITC/PI staining based flow cytometry method (reference value: 1.9%); format: functional
Hep 3B2 [31] = assay: Induction of apoptosis in human Hep3B cells assessed as early apoptotic cells at 15 nM incubated for 48 hrs by Annexin V-FITC/PI staining based flow cytometry method (reference value: 3.9%); format: functional
Hep 3B2 [32] = assay: Antitumor activity against human Hep3B cells xenografted in nude mouse model assessed as decrease in tumor weight at 5 mg/kg,ip administered every second day for 3 weeks by vernier caliper method; format: functional, organism-based
Huh-7 [33] = assay: Induction of apoptosis in human Huh-7 cells assessed as viable cells at 25 nM incubated for 48 hrs in presence of chloroquine by Annexin V-FITC/PI staining based flow cytometry method (reference value: 91.5%); format: functional; settings: read-out: Activity

Structure (SMILES): CCN(CC)CCCC(C)Nc1ccnc2cc(Cl)ccc12 (stereo not drawn) [CHLOROQUINE]
- Activity (Hep 3B2 [1]): Active
- Activity (Huh-7 [2]): Active
- Activity (Huh-7 [3]): Active
- Activity (Hep 3B2 [4]): Active
- Activity (Huh-7 [5]): Active

Structure (SMILES): C[C@]12CC[C@H](O)C[C@H]1CC[C@@H]1[C@@H]2[C@H](O)C[C@]2(C)[C@@H](c3ccc(=O)oc3)CC[C@]12O [GAMABUFOTALIN]
- Activity (Huh-7 [6]): Active
- Activity (Hep 3B2 [7]): Active
- Activity (Hep 3B2 [8]): 0.5%
- Activity [9]: Non-Toxic
- Activity (Hep 3B2 [10]): Active
- viability at 0.02 µM (Hep 3B2 [11]): 88.7%
- Activity (Huh-7 [12]): Active
- Activity (Hep 3B2 [13]): Active
- Activity (Hep 3B2 [14]): Active
- Activity (Hep 3B2 [15]): 6.6%
- Activity (Hep 3B2 [16]): Active
- Activity (Hep 3B2 [17]): Active
- Activity (Hep 3B2 [18]): Active
- Activity (Hep 3B2 [19]): Active
- Activity (Huh-7 [20]): Active
- Activity (Hep 3B2 [21]): 10.9%
- viability at 0.015 µM (Hep 3B2 [22]): 88.2%
- Activity (Huh-7 [23]): Active
- Activity (Huh-7 [24]): 8.7%
- Activity (Huh-7 [25]): 3.4%
- Activity (Huh-7 [26]): Active
- Activity (Huh-7 [27]): Active
- Activity (Hep 3B2 [28]): Active
- Activity (Hep 3B2 [29]): 13.2%
- Activity (Huh-7 [30]): 1.7%
- Activity (Hep 3B2 [31]): 6.8%
- Activity (Hep 3B2 [32]): Active
- viability at 0.025 µM (Huh-7 [33]): 65.4%
